In one data set the test system is orthotopic KPC tumor. Description: Efficacy and immune parameters (IVIS, IHC) in orthotopic KPC tumor model. Format: in vivo, mouse. The procedure: Panels B and C) IHC analysis to determine CRT (panel B) and LC3B (panel C) expression at the orthotopic tumor site. Imaging intensity was quantitatively expressed as fold increase that was normalized to the saline group. Representative IHC images are shown on the right. Bar is 50 µm. Panel D) Quantitative assessment of HMGB 1 release. The IHC images were analyzed by Aperio ImageScope software to determine protein released from the damaged nuclei, as described in FIG. 22. Data are expressed as mean ± SEM, n=3. *, p<0.05; **, p<0.01; ***, p<0.001 (1-way ANOVA followed by a Tukey’s test).
Additional IHC analysis was undertaken using the tumor samples collected in FIG. 5, panel A. Quantitative assessment of: Panel A) the CD8^+/ FoxP3^+ cell ratio; Panel B), perforin; Panel C) granzyme B; Panel D) IFN-γ production; and Panel E) PD-L1 expression. Representative IHC images appear in FIG. 18, panels A-C. Data are expressed as mean ± SEM, n=3. *, p<0.05; **, p<0.01; ***, p<0.001 (1-way ANOVA followed by a Tukey’s test).
Tumor-bearing mice received IV injection to deliver an IRIN dose of 40 mg/kg (free IRIN or IRIN silicasome) per injection every 3 days for a total of 3 administrations. Control animals received saline only. Animals were sacrificed 72 h after the last injection. To confirm the impact on tumor growth, ex vivo bioluminescence imaging was performed to assess image intensity at the primary and metastatic tumor sites. Primary tumors were fixed in 10% formalin, followed by paraffin embedding and sectioning to provide 4 µm slices for IHC analysis in the UCLA Translational Pathology Core Laboratory (TPCL). The slides were scanned and images were assessed by using Aperio ImageScope software (Leica). Primary antibodies to CD8 (#14-0808-82) and FoxP3 (#13-5773-82) were purchased from ThermoFisher; CRT (ab2907), while antibodies to HMGB1 (ab18256), granzyme B (ab4059), perforin (ab16074) and IFN-γ (ab9657) were purchased from Abcam. The antibody to LC-3 (#0231-100/LC3-5F10) was purchased from Nanotools, while the antibody to PD-L1 (#64988) was purchased from Cell Signaling Technology.

Another data set has as its system KPC cells. Description: Lysosomal alkalization, LysoTracker Red DND 99 confocal microscopy. Format: cell-based, mouse. Here is the method:
Approximately 1.5×10^4 KPC cells were seeded in µ-Slide 8 well (ibidi, 80826). To reveal the intracellular distribution of IRIN, attached KPC cells were treated with IRIN (300 µM) for 24 h. Cell membranes were stained using an Alexa Fluor® 594 conjugated WGA dye (Invitrogen™, W11262) at 2 µg/mL for 10 minutes. After washing, the cells were visualized using a Leica SP8-MD confocal microscope under the 100× objective lens. The excitation and emission wavelengths for IRIN were 405 nm and 440~490 nm, respectively^[51]
IRIN-treated KPC cells were washed and replenished with fresh media containing 100 nM DND-99 dye and 5 µg/mL Hoechst 33342 for nuclear staining. The cells were incubated at 37° C. for 0.5 h, followed by washing with phenol red free media. The cells were then visualized using a Leica SP8-MD confocal microscope under the 100× objective lens.
The of the IRIN silicasome on lysosomal alkalization was performed at drug concentrations of 75 µM and 300 µM in KPC cells. Empty silicasomes (in which a 500 µg/mL particle dose is representative of an encapsulated IRIN dose of 300 µM) was included as control. The assessment of LC3B, p62 and PD-L1 immunoblotting and IF staining were performed in KPC cells during treatment with the IRIN silicasome or empty silicasomes, as described for the free drug.

The nature of data set [1]: pKa and % protonated drug (Henderson-Hasselbalch equation). Format: physicochemical. The procedure:
FIG. 9, panels A-D, illustrates a dose- and time-dependent study on IRIN-induced lysosomal alkalization effect in KPC cells. Panel A) Dose-dependence. KPC cells were treated with indicated free IRIN dose for 24 hours, followed by DND 99 and Hoechst dye co-staining, similar to FIG. 1, panel C. We were able to discern a major signal drop at 20 µM. IRIN accumulation in the KPC cells is indicated by white arrows. Panel B) Time-dependence. KPC cells were treated using 300 µM free IRIN for indicated time period, followed by DND 99/Hoechst co-staining, similar to panel A. We were able to observe a major DND 99 signal drop as early as 1 h post incubation. Quantification of DND 99 fluorescence intensity in panels A and B higher presented in FIG. 1, panel D. Panel C) Similar to the experiment described in FIG. 1, panel C, KPC cells were exposed to IRIN (300 µM) or chloroquine (CQ, 32 µM) for 24 h. The disappearance of the red fluorescence staining in the acidifying organellar environment in IRIN- and CQ-treated cells is as a result of the alkalization effect of these weak-base molecules. Bars are 10 µm. Panel D) The Henderson-Hasselbalch (H—H) equation allows calculation of % protonated drug at different pH values. Although 83.3% of IRIN molecules are protonated at pH 7.4, the equilibrium shifts to ~99% of the molecules at a lysosomal relevant pH ~4.5-5.5. […]

Where a name gives a salt, the structure may show the parent alone.

As for `CCc1c2c(nc3ccc(OC(=O)N4CCC(N5CCCCC5)CC4)cc13)-c1cc3c(c(=O)n1C2)COC(=O)[C@]3(O)CC` [IRIN, Irinotecan hydrochloride trihydrate], in the data set on orthotopic KPC tumor (40 mg/kg IV on days 8, 11, 14, sacrifice day 17), the “tumor size by bioluminescence intensity (IVIS) vs saline” value is given as “not statistically significant”. Moreover, in the data set on orthotopic KPC tumor (40 mg/kg IV x3), the “IFN-γ production in the TME (IHC)” value was “significant increase” and the “LC3B staining intensity at tumor site (IHC)” value was “significantly increased staining intensity”. For the same compound, in the data set on KPC cells (300 µM free IRIN), the “time at which a major DND 99 signal drop is observed” value is given as 1 h. For the same compound, the “IRIN dose at which a major DND 99 signal drop is discerned” value with KPC cells (24 hours) came out at 20 µM. In addition, the “DND 99 relative staining intensity” value in the data set with KPC cells (IRIN 300 µM, 24 h, untreated cells 57.9 ± 1.3, Image J) was 13.9 ± 0.9. Also, in data set [1] (lysosomal relevant pH ~4.5-5.5), the “% of molecules protonated” value is ~ 99%. The “% of molecules protonated” value in data set [1] (pH 7.4) worked out at 83.3%.

For the origin of these results see patent publication US20230338363A1, “COMBINATION CHEMO-IMMUNOTHERAPY FOR PANCREATIC CANCER USING THE IMMUNOGENIC EFFECTS OF AN IRINOTECAN SILICASOME NANOCARRIER PLUS ANTI-PD-1” (The Regents of the University of California, priority 2020, published 2023).
